The values below are quoted from earlier work in paper PMC6680430, “Quantitative Prediction of Human Pharmacokinetics and Pharmacodynamics of CKD519, a Potent Inhibitor of Cholesteryl Ester Transfer Protein (CETP)” (Pharmaceutics, 2019).

This data set concerns CETP. The note with it: cited from earlier work.

For `COc1cc(F)c(C(C)C)cc1-c1ccc(C(F)(F)F)cc1CN1C(=O)O[C@H](c2cc(C(F)(F)F)cc(C(F)(F)F)c2)[C@@H]1C` [anacetrapib], under “exposure-response from literature”, the “peak effect, inhibition of CETP” value is recorded as ~ 90%. For the same molecule, the IC50 (known in vivo value for the comparator, read-out: in vivo IC50 (plasma concentration for half of maximum CETP inhibition)) was 22 nM.
